This note sets out measurements from patent EP0491441A1, “Fungicidal isoquinoline derivatives” (SHELL INTERNATIONALE RESEARCH MAATSCHAPPIJ B.V., priority 1990, dated 1992).

What all share (assay type): in vivo
Test [1] has as its system powdery mildew in barley. Briefly: Curative (C) activity against powdery mildew in barley. The note with it: Hordeum vulgare, concentration 100 ppm. On the procedure: (§1) In further tests, the residual (R) and curative (C) activities of various compounds against powdery mildew in barley and wheat was determined at various concentrations of the test compounds.
Test [2] deals with powdery mildew in wheat. Briefly: Curative (C) activity against powdery mildew in wheat. The following applies: Triticum aestivum, concentration 400 ppm. On the procedure:
as §1

The test system of test [3] is powdery mildew in wheat. The experiment in a line: Residual (R) activity against powdery mildew in wheat. The following applies: Triticum aestivum, concentration 400 ppm. On the procedure: as §1
Test [4] deals with powdery mildew in barley. The experiment in a line: Residual (R) activity against powdery mildew in barley. The note with it: Hordeum vulgare. On the procedure:
as §1

Turning to `CCCOc1cc2c(cc1OCC)CC[N+]([O-])=C2c1ccccc1[N+](=O)[O-]` [Example 7, 1-(2-nitrophenyl)-3,4-dihydro-6-ethoxy-7-propoxyisoquinoline-N-oxide], the activity at 100 ppm with powdery mildew in barley [1] was determined as 100%. Moreover, the results for the activity at 400 ppm in the test on powdery mildew in wheat [2], in the test with powdery mildew in wheat [3] and in the test with powdery mildew in barley [4] (concentration 400 ppm) were 23%, 94% and 75%, respectively.
In the case of `CCCOc1cc2c(-c3c(Cl)cccc3Cl)[n+]([O-])ccc2cc1OCC` [Example 6, 1-(2,6-Dichlorophenyl)-6-ethoxy-7-propoxyisoquinoline N-oxide], the activity at 100 ppm with powdery mildew in barley [1] and with powdery mildew in barley [4] (concentration 100 ppm) was 100% throughout. In addition, the activity at 400 ppm in the test on powdery mildew in wheat [2] worked out at 68.5%; in the test with powdery mildew in wheat [3], 98.8%.
